Assay [1] relates to HDAC (A549 cells). Briefly: whole cell deacetylase (HDAC) assay in A549 cells with Boc-Lys(Ac)-AMC. Conditions: pre-incubated with inhibitors 16 hours, mean of at least 2 experiments. The assay is classed as cell-based, human. The protocol:
(§1) Freshly trypsinized cells were dispensed into 96-well black Costar E1A/RIA plates (Corning Inc., Corning, N.Y.). Small molecule substrate Boc-Lys(Ac)-AMC (Bachem Biosciences Inc., King of Prussia, Philadelphia) was added to cell suspension with the final concentration of 300 uM. Cells were placed in 37° C. incubator with 5% CO2 for 90 minutes. Reaction was stopped by adding a freshly prepared Flouor-de-Lys™ deleveloper (Biomol, Plymouth Meeting, Philadelphia) with 1 uM TSA (Biomol) in assay buffer (25 mM Tris, HCl pH8.0, 137 mM NaCl, 2.7 mM KCl, 1 mM MgCl2) plus 1% NP-40. With the presence of 1% NP-40, both excellular and intracellular HDAC activity was measured in cultured cells altogether.
(§2) HDAC enzyme assay in intact cells was carried out as described in Example 3.

Assay [2] concerns HDAC (Du145 cells). Kind of assay: whole cell deacetylase (HDAC) assay in Du145 cells with Boc-Lys(Ac)-AMC. Format: cell-based, human. As to conditions: pre-incubated with inhibitors 16 hours, mean of at least 2 experiments. The protocol:
as §1, §2

In assay [3] the test system is HDAC (HCT116 cells). Briefly: whole cell deacetylase (HDAC) assay in HCT116 cells with Boc-Lys(Ac)-AMC. Format: cell-based, human. The protocol: as §1, §2
Cultured HCT116 cells were counted and distributed to each well of the 96-well plate. […] After addition of Sirtuin substrate (Fluor-de-Lys-SirT1, 500 uM) or HDAC substrate Boc-Lys(Ac)-AMC (300 uM), the cells are further incubated for an additional 2 hours. Reaction was stopped and read as described in Examples 3 and 6.

Assay [4] relates to HDAC (293T cells). Kind of assay: whole cell deacetylase (HDAC) assay in 293T cells with Boc-Lys(Ac)-AMC. The assay is classed as cell-based, human. As to conditions: for IC50: pre-incubated with inhibitors 16 hours, mean of at least 2 experiments. As for the experimental part: as §1, §2
In assay [5] the test system is HDAC (Jurkat T cells). Kind of assay: whole cell deacetylase (HDAC) assay in Jurkat T cells with Boc-Lys(Ac)-AMC. Conditions: pre-incubated with inhibitors 16 hours, mean of at least 2 experiments. Format: cell-based, human. As for the experimental part: as §1, §2
Assay [6] deals with HDAC (human white blood cells). Kind of assay: ex vivo inhibition of whole cell HDAC activity in human white blood cells. Format: cell-based. Conditions: 16 hours incubation. As for the experimental part: Whole blood (human or mouse) was centrifuged at 2500 rpm for 10 minutes at ambient temperature in a Sorvall RT-7 centrifuge (Mandel Scientific Co., Guelph, Ontario). Plasma was removed and buffy coat was collected. Five volumes of Erythrocyte Lysis Buffer (EL) (Qiagen Canada Inc., Mississauga, Ontario) were added to buffy coat. Buffy coat was incubated on ice for 20 minutes before it was centrifuged at 400 g for 10 minutes at 4° C. Supernatant was removed and buffy coat was washed twice with EL buffer and re-centrifugation. Buffy coat was resuspended in RPMI media and cells (white blood cells) were counted with trypan blue exclusion.

For assay [7], the target named is T1, SirT1 (HCT116 cells) (Homo sapiens, UniProt Q96EB6).
T1 construct: endogenous in cells; host or cells: HCT116
T1 sequence (Q96EB6 1-747): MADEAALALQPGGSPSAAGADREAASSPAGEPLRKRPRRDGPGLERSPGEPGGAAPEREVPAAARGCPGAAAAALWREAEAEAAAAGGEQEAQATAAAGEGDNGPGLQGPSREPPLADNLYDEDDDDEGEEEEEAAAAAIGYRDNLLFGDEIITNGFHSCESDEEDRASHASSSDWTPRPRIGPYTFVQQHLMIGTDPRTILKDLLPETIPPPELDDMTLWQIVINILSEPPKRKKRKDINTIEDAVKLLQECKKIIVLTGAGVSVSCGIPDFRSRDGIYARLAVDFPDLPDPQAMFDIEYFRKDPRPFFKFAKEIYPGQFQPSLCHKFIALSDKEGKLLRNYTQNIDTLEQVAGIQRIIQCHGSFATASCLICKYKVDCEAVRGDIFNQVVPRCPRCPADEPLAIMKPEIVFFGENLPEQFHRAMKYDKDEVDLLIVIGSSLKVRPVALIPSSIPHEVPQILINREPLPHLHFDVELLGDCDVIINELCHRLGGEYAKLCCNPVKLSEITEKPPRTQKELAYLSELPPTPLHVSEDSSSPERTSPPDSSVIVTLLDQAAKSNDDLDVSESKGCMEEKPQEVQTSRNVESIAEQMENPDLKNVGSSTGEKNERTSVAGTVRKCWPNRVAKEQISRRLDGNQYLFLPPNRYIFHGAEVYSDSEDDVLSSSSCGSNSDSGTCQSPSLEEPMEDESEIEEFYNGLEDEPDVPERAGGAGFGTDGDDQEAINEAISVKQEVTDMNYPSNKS
Kind of assay: whole cell sirtuin (SirT1) activity in HCT116 cells with Fluor-de-Lys-SirT1 substrate. Format: cell-based. From the text: Cultured cells (HCT116) were trypsinized and counted by trypan blue exclusion. Live cells (2×10^5) were distributed to each well of the 96-well plate. […] Independently, we fixed concentrations of either Fluor-de-Lys-SirT1 substrate or Fluor-de-Lys-SirT2 in whole cells and analyzed the effect of exogeneous NAD+ concentration on whole cell sirtuin activity (FIG. 7b). […] Therefore the reading was done immediately after stopping.
Cultured HCT116 cells were counted and distributed to each well of the 96-well plate. […] After addition of Sirtuin substrate (Fluor-de-Lys-SirT1, 500 uM) or HDAC substrate Boc-Lys(Ac)-AMC (300 uM), the cells are further incubated for an additional 2 hours. Reaction was stopped and read as described in Examples 3 and 6. […] This observation is consistent with our finding in Example 7 that TSA can not inhibit class III (Sirtuins) in vitro.

For assay [8], the target named is T2, recombinant Sirt1 (Homo sapiens, UniProt Q96EB6).
T2 construct: purchased Biomol
T2 sequence (Q96EB6 1-747): T1 sequence (Q96EB6 1-747)
Kind of assay: recombinant Sirt1 enzyme assay in vitro (Fluor-de-Lys-SirT1 substrate). The assay is classed as biochemical. From the text: (§3) Human SirT1, 2, 3 recombinant enzymes were purchased from Biomol (Biomol, Plymouth Meeting, Philadelphia).
(§4) Reaction is read as described in Example 3.

Assay [9] deals with T3, recombinant Sirt2 (Homo sapiens, UniProt Q8IXJ6).
T3 construct: purchased Biomol
T3 sequence (Q8IXJ6 1-389): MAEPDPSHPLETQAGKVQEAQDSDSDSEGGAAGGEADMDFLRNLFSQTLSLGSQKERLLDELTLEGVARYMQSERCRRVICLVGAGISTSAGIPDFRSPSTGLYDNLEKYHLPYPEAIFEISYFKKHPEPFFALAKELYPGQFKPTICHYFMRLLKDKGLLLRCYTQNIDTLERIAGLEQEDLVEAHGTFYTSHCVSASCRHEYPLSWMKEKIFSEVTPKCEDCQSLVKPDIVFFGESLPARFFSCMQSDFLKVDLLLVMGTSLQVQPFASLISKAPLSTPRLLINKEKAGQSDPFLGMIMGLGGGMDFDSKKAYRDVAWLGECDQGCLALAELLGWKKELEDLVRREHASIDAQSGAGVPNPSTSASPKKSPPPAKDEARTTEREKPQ
Kind of assay: recombinant Sirt2 enzyme assay in vitro (Fluor-de-Lys-SirT2 substrate). The assay is classed as biochemical.
Excerpt: as §3, §4

Assay [10] concerns the target T4, recombinant Sirt3 (Homo sapiens, UniProt Q9NTG7).
T4 construct: purchased Biomol
T4 sequence (Q9NTG7 1-399): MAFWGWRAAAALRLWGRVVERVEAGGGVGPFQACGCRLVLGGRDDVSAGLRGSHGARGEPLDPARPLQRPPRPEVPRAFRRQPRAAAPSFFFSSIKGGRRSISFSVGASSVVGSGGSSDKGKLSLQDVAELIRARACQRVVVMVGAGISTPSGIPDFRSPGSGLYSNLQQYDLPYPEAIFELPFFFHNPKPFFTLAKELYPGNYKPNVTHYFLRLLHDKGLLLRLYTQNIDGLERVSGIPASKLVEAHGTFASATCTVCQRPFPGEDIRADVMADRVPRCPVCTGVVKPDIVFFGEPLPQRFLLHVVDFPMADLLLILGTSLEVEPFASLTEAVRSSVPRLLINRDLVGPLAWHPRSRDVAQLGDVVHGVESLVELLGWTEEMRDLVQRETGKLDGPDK
Briefly: recombinant Sirt3 enzyme assay in vitro (Fluor-de-Lys-SirT2 substrate). As to conditions: substrate FldSirt2; activation; read-out: EC50 to activate recombinant Sirt3 in vitro. Format: biochemical.
Excerpt: as §3, §4

Turning to `O=C(/C=C/c1ccc(CN(CCO)CCc2c[nH]c3ccccc23)cc1)NO` [LAQ-824], the IC50 (in general, the point on the concentration scale where inhibition reaches its midpoint) in assay [1] amounted to 0.02 µM; in assay [2], 0.05 µM; in assay [3] (pre-incubated with inhibitors 16 hours, mean of at least 2 experiments), 0.06 µM; in assay [4], 0.04 µM; in assay [5], 0.04 µM. Besides, the “inhibition of whole cell HDAC activity in human white blood cells” value in assay [6] was “dose-dependent inhibition”.

Take `CC(=O)O[C@H]1C(=O)[C@@]2(C)[C@H]([C@H](OC(=O)c3ccccc3)[C@]3(O)C[C@H](OC(=O)[C@H](O)[C@@H](NC(=O)c4ccccc4)c4ccccc4)C(C)=C1C3(C)C)[C@]1(OC(C)=O)CO[C@@H]1C[C@@H]2O` [taxol]: in assay [4], the “effect on HDAC activity in whole cells” value is on record as “no effect on HDAC activity” and the IC50 was over 50 µM.

Take `NC(=O)c1cccnc1` [nicotinamide]: the “quenching of the whole cell sirtuin reaction” value in assay [7] (HCT116 whole cells) is “ineffective at quenching the reaction”.

`CC(/C=C/C(=O)NO)=C\[C@@H](C)C(=O)c1ccc(N(C)C)cc1` [TSA, trichostatin A]: the “inhibition of whole cell HDAC activity” value in assay [3] (Boc-Lys(Ac)-AMC 300 uM) is reported as “could inhibit whole cell HDAC activity”. Besides, in [8] (TSA up to 10 uM), the “inhibition of recombinant Sirt1 in vitro” value is on record as “does not inhibit”. Besides, the IC50 in assay [8] (substrate FldSirt1, 45 minutes, read-out: IC50 against recombinant Sirt1) is over 10 µM; in assay [9] (substrate FldSirt2, 45 minutes, read-out: IC50 against recombinant Sirt2), over 10 µM. Moreover, the “inhibition of recombinant Sirt2 in vitro” value in assay [9] (TSA up to 10 uM) is listed as “does not inhibit”. For the same compound, the “inhibition of whole cell SirT1 activity” value in assay [7] (HCT116 cells, 1.5 hours pre-incubation, Fluor-de-Lys-SirT1 500 uM) was “not”.

`NC(=O)c1ccc[n+]([C@@H]2O[C@H](COP(=O)([O-])OP(=O)(O)OC[C@H]3O[C@@H](n4cnc5c(N)ncnc54)[C@H](O)[C@@H]3O)[C@@H](O)[C@H]2O)c1` [NAD+]: the “effect of exogenous NAD+ on whole cell sirtuin activity” value in assay [7] (HCT116 cells, fixed Fluor-de-Lys-SirT1 or Fluor-de-Lys-SirT2 substrate) is listed as “no effect on whole cell sirtuin activity”.

In the case of `Oc1ccc(C=Cc2cc(O)cc(O)c2)cc1` [Resveratrol], the “activation of recombinant Sirt1 in vitro” value in assay [8] was “can activate Sirt1 enzymes in vitro in a dose dependent manner”. The 50% effective concentration (EC50) – broadly, the concentration at which the effect is half-maximal – was 912 µM in [9] (substrate FldSirt2, activation, read-out: EC50 to activate recombinant Sirt2 in vitro) and over 2000 µM in [10]. In assay [7] (HCT116 cells, 1.5 hour pre-incubation), the “activation of whole cell sirtuin (SirT1) activity” value was “could activate whole cell sirtuin (SirT1) activity in a dose-dependent manner”.

The record behind these values is patent US20060063210A1, “Histone deacetylase whole cell enzyme assay” (Methylgene, Inc., priority 2004, published 2006).
